Reference: patent US20230270764A1, “COMPOSITION COMPRISING CANNABINOIDS, TERPENES, AND FLAVONOIDS FOR TREATING DEPRESSION” (priority 2020, published 2023)

Legend:
[1] = system: LPS-injected mice; assay: Social exploration test in the LPS-induced model of depression; format: in vivo
Text: In a preliminary screening experiment, subjects were 4-6 months-old male C57BL/6 (Jackson Laboratories, USA). Animals were housed 2-3/cage, kept in an air-conditioned room (23+°C) and given ad libitum access to food and water. The mice were kept in a reversed light/dark cycle, with lights off from 7 a.m. to 7 p.m. All experiments were approved by the Hebrew University of Jerusalem Ethics Committee on Animal Care and Use. In preparation for the Sucrose Preference Test, mice were habituated 2-3 times to sucrose drinking, by exposing them overnight to two graduated tubes, one containing water and the other containing sucrose solution (1%, w/v). Water and sucrose consumption were measured, and sucrose preference was computed by dividing the amount of sucrose consumed by drinking (ml sucrose) by the total drinking volume (ml of sucrose + water). One day later, the weight of the mice and the food in their cages was weighed for later analysis of food consumption and body weight changes. […] In this test, the measured locomotor activity reflects not only motor capacity, but particularly the innate motivation for spatial exploration (which increases the distance travelled) and the anxiety level (which reduces the distance travelled, in general, and particularly the distance and time spent in the center of the open field). […] The distance travelled (cm), the velocity of the movement (cm/second), the time spent (seconds), distance travelled (cm) in the center area of the arena, as well as the number of entries from the perimeter area into the center of the arena were automatically measured over a 4-minute period, using EthoVision XT video tracking system and software (Noldus, The Netherlands). […] Social exploration, defined as the time of near contact between the nose of the subject and the juvenile in the small cage was recorded for 4 min, using computerized in-house software. Sucrose preference was assessed, as described above, between 8 to 27 hr post LPS injection. […]

[2] = system: LPS-injected mice; assay: Porsolt forced swim test in LPS-injected mice; format: in vivo; conditions: young-adult male mice
Experimental: Given the mixed effects that CBD administration had in the reversal of LPS-induced depressive-like behavior in young-adult mice, the effects of CBDA by itself, and in combination with CBD, were examined in young-adult (2.5-3.5 months old) female and male mice. Mice were injected (i.p.) with either vehicle, CBDA or CBD and CBDA combination, and 1 hr later with LPS (330 µg/kg). Following injections, the mice were examined according to the methods described in Example 8, apart from the Porsolt forced swim test that replaced the open field test in male mice. In this test, mice were placed in a plastic cylinder (with a height of 20 cm and diameter of 50 cm), filled with 25° C. water. The time spent immobile, defined as the absence of all movement except for motions required to maintain head above water, and the latency for the first immobility episode, were recorded for 6 min, and manually analyzed by an experienced experimenter.

Row | Structure (SMILES) | social exploration vs LPS-injected vehicle-treated mice ([1]; adult (6-9 months-old) male mice, acute CBD) | social exploration ([1]; adult and young adult female mice, acute CBD, saline or LPS) | LPS-induced reduction in social exploration ([1]; young-adult male mice, CBD 30 mg/kg i.p. 3 consecutive days) | time spent in immobility, forced swim test ([2]; CBDA 1, 5 mg/kg, CBD 25 and CBDA 1 mg/kg) | latency to the first episode of immobility ([2]; printed: CBDA 1 mg/kg)
1 | C=C(C)[C@@H]1CCC(C)=C[C@H]1c1c(O)cc(CCCCC)cc1O [CBD, cannabidiol] | significantly increased social interest | None of these parameters was influenced by treatment with CBD | no effects |  | 
2 | C=C(C)[C@@H]1CCC(C)=C[C@H]1c1c(O)cc(CCCCC)c(C(=O)O)c1O [CBDA, Cannabidiolic acid] |  |  |  | no significant difference | significantly increased
